# Data from patent US20150246888A1, “ENOYL REDUCTASE INHIBITORS WITH ANTIBACTERIAL ACTIVITY” (priority 2012, published 2015).
# Like-named read-outs stand apart in the source and are kept apart here.
# Columns and labels:
# [1] = system: E. coli (BW251113 strain); assay: microbe, parasite or virus in culture; format: cell-based; settings: Escherichia coli
# [2] = system: B. anthracis, ΔANR strain; assay: microbe, parasite or virus in culture; format: cell-based; settings: Bacillus anthracis
# [3] = system: S. aureus (ATCC number 29213); assay: microbe, parasite or virus in culture; format: cell-based; settings: Staphylococcus aureus
# [4] = system: F. tularensis, strain Utah 112; assay: microbe, parasite or virus in culture; format: cell-based; settings: Francisella tularensis, UTAH112
# [5] = system: E. coli TolC-, an efflux defective mutant; assay: microbe, parasite or virus in culture; format: cell-based; settings: Escherichia coli
# [6] = system: MRSA (ATCC number 43300); assay: microbe, parasite or virus in culture; format: cell-based, methicillin-resistant Staphylococcus aureus; settings: Staphylococcus aureus
# [7] = molecular target: FtuFabI (Francisella tularensis subsp. tularensis, UniProt Q5NGQ3); assay: biochemical; set-up: species or system F. tularensis subsp. tularensis Schu4
# FtuFabI, sequence (Q5NGQ3 1-260 limits assumed): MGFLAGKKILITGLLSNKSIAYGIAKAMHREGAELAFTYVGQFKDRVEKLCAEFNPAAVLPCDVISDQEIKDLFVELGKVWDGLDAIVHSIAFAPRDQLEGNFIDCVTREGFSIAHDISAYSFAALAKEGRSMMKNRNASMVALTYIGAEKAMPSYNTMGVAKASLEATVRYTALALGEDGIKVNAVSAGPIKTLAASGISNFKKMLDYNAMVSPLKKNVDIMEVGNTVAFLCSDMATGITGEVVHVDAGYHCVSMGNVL
# [8] = read-out: IC50, Inhibition of FabI
Structure (SMILES),MIC [1],MIC [2],MIC [3],MBC [4],MIC [4],MIC [5],MIC [6],IC50 [7],"IC50 [7, 8]"
"COc1ccc(Cn2cnc3cc4c(cc32)CCC4)cc1 [Compound 20, 1-(4-methoxybenzyl)-1,5,6,7-tetrahydroindeno[5,6-d]imidazole]",> 12.5 µg/mL,> 12.5 µg/mL,> 12.5 µg/mL,37.5 µg/mL,5.5 µg/mL,> 12.5 µg/mL,> 12.5 µg/mL,840 nM,
"COc1ccc(Cn2cnc3cc4c(cc32)CC(C)(C)C4)cc1OC [Compound 12, 1-(3,4-dimethoxybenzyl)-6,6-dimethyl-1,5,6,7-tetrahydroindeno[5,6-d]imidazole]",> 12.5 µg/mL,> 12.5 µg/mL,> 12.5 µg/mL,,> 12.5 µg/mL,> 12.5 µg/mL,> 12.5 µg/mL,71 nM,
"COc1ccc(Cn2cnc3cc(C)c(C)cc32)cc1C [Compound 7, 1-(4-methoxy-3-methylbenzyl)-5,6-dimethyl-1H-benzo[d]imidazole]",> 12.5 µg/mL,> 12.5 µg/mL,> 12.5 µg/mL,,> 12.5 µg/mL,12.5 µg/mL,> 12.5 µg/mL,250 nM,
"CC1(C)Cc2cc3ncn(Cc4ccc5c(c4)OCO5)c3cc2C1 [Compound 13, 1-(benzo[d][1,3]dioxol-5-ylmethyl)-6,6-dimethyl-1,5,6,7-tetrahydroindeno[5,6-d]imidazole]",> 12.5 µg/mL,> 12.5 µg/mL,> 12.5 µg/mL,,> 12.5 µg/mL,12.5 µg/mL,> 12.5 µg/mL,29 nM,
"Cc1cc2ncn(Cc3ccc(O)c(C)c3)c2cc1C [Compound 18, 4-((5,6-dimethyl-1H-benzo[d]imidazol-1-yl)methyl)-2-methylphenol]",,,,,,,,1300 nM,
"COc1ccc(Cn2cnc3cc4c(cc32)CCC4)cc1C [Compound 8, 1-(4-methoxy-3-methylbenzyl)-1,5,6,7-tetrahydroindeno[5,6-d]imidazole]",> 12.5 µg/mL,> 12.5 µg/mL,> 12.5 µg/mL,12.5 µg/mL,5.5 µg/mL,12.5 µg/mL,> 12.5 µg/mL,,5 nM
"Nc1ccc(Cn2cnc3cc4c(cc32)CCC4)cc1 [Compound 21, 4-((6,7-dihydroindeno[5,6-d]imidazol-1(5H)-yl)methyl)aniline]",> 12.5 µg/mL,> 12.5 µg/mL,> 12.5 µg/mL,,> 12.5 µg/mL,> 12.5 µg/mL,> 12.5 µg/mL,12000 nM,
"CC1(C)Cc2cc3ncn(Cc4ccc5c(c4)CC[C@@H]5O)c3cc2C1 [Compound 15, (S)-5-((6,6-dimethyl-6,7-dihydroindeno[5,6-d]imidazol-1(5H)-yl)methyl)-2,3-dihydro-1H-inden-1-ol]",> 12.5 µg/mL,> 12.5 µg/mL,> 12.5 µg/mL,,> 12.5 µg/mL,> 12.5 µg/mL,> 12.5 µg/mL,41 nM,
"CC(c1ccc(Cl)c(Cl)c1)n1cnc2cc3c(cc21)COC3 (stereo not drawn) [Compound 6, 1-(1-(3,4-dichlorophenyl)ethyl)-5,7-dihydro-1H-isobenzofuro[5,6-d]imidazole]",> 12.5 µg/mL,> 12.5 µg/mL,> 12.5 µg/mL,,> 12.5 µg/mL,> 12.5 µg/mL,> 12.5 µg/mL,,890 nM
"Cc1cc2ncn(Cc3ccc4c(c3)OCO4)c2cc1C [Compound 17, 1-(benzo[d][1,3]dioxol-5-ylmethyl)-5,6-dimethyl-1H-benzo[d]imidazole]",,,,,,,,4400 nM,
"COc1ccc(Cn2cnc3cc4c(cc32)CCC4)cc1OC [Compound 23, 1-(3,4-dimethoxybenzyl)-1,5,6,7-tetrahydroindeno[5,6-d]imidazole]",,,,,,,,5900 nM,
"COc1ccc(Cn2cnc3cc(C)c(C)cc32)cc1 [Compound 16, 1-(4-methoxybenzyl)-5,6-dimethyl-1H-benzo[d]imidazole]",,,,,,,,4700 nM,
"COc1ccc(Cn2cnc3cc(C)c(C)cc32)cc1OC [Compound 22, 1-(3,4-dimethoxybenzyl)-5,6-dimethyl-1H-benzo[d]imidazole]",,,,,,,,7600 nM,
